Key:
[1] = Stability against oxygen in air; type: physicochemical; conditions: dissolved either in DMSO/water or in acetic acid/water, stirred on air for more than a week
Source text: Stability Against Oxygen in Air
The compounds • 4-{4-[3-(2-[1,2,4]Triazol-1-yl-5-trifluoromethyl-phenyl)-ureido]-phenoxy}-pyridine-2-carboxylic acid methylamide, • 4-{4-[3-(2-[1,2,3]Triazol-1-yl-5-trifluoromethyl-phenyl)-ureido]-phenoxy}-pyridine-2-carboxylic acid methylamide, 525946 • 4-{4-[3-(2-Imidazol-1-yl-5-trifluoromethyl-phenyl)-ureido]-phenoxy}-pyridine-2-carboxylic acid methylamide, and • 1-[4-(Pyridin-4-yloxy)-phenyl]-3-(2-[1,2,4]triazol-1-yl-5-trifluoromethyl-phenyl)-urea, respectively, were dissolved either in DMSO/water or in acetic acid/water and stirred on air for more than a week.

VGFR2 (KDR) = target: T1, VGFR2 (KDR) (Homo sapiens, UniProt P35968); test: flashplate kinase assay, phosphorylation of Biotin-poly-Glu-Tyr (4:1) by VGFR2 (KDR); type: biochemical
T1 construct: The catalytic sections of the corresponding tyrosine kinases are preferably expressed as GST fusion proteins; GST
Method: (§1) The biological activity of N-oxide compounds according the invention are tested in one or more standard kinase assay systems as described in the art. Preferably, the compounds according the invention are tested in a kinase assay as described below, or in analogous manner thereof:
(§2) In this assay the inhibitory action of the compounds according to the invention on the phosphorylation of the substrates Biotin-poly-Glu-Tyr (4:1) by VGFR2 (KDR) or poly-Glu-Tyr (4:1) by Tie-2, respectively, is tested. In the wells of a streptavidin-coated microtiter flashplate, VEGFR2, or a microtiter flashplate, Tie-2, respectively, phosphorylate the substrates in the presence of ATPyS and small amounts of radioactive ^33P-ATP. Phosphorylated substrates bind during enzymatic reaction to the walls of the wells. The phosphorylation reaction is stopped by addition of a stopping reagent, the liquid is removed from the wells and the wells are rinsed. The amount of radioactivity incorporated into the substrate bound to the well is then measured. The reaction is done in presence of different concentrations of the compound and in absence of the compound. The inhibitory action of the compounds according to the invention is determined on the basis of the ratio of radioactivity found in the presence of a compound according to the invention in comparison to the radioactivity found in the enzymatic reaction in the absence of a compound according to the invention. The catalytic sections of the corresponding tyrosine kinases are preferably expressed as GST fusion proteins.
(§3) 100 μL of the compound to be tested are applied to a well (starting concentration: 1E-3 mol/L in 100% DMSO); the dilution for the determination of the IC 50 values is performed on a BiomekFX robot in 10 steps (range of concentration is 1E-5 to 1E-10 mol/L in the assay, i.e. 1E-5, 1E-6, 3E-7, 1E-7, 3E-8, 1E-8, 3E-9, 1E-9, 3E-10, 1E-10 mol/L).

Tie-2 = target: T2, Tie-2 (Homo sapiens, UniProt Q02763); test: flashplate kinase assay, phosphorylation of poly-Glu-Tyr (4:1) by Tie-2; type: biochemical; conditions: read-out: TIE2 [IC50]
T2 construct: The catalytic sections of the corresponding tyrosine kinases are preferably expressed as GST fusion proteins; GST
Method: as §1, §2, §3

T2 sequence (Q02763 824-1096 limits assumed): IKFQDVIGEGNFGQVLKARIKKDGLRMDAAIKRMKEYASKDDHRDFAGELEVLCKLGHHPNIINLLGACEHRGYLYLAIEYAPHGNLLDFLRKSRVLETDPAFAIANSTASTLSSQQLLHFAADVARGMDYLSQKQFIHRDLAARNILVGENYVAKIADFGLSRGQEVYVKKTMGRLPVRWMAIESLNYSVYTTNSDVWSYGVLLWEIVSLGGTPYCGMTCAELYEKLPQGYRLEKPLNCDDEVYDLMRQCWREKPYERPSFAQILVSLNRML
T1 sequence (P35968 834-1162 limits assumed): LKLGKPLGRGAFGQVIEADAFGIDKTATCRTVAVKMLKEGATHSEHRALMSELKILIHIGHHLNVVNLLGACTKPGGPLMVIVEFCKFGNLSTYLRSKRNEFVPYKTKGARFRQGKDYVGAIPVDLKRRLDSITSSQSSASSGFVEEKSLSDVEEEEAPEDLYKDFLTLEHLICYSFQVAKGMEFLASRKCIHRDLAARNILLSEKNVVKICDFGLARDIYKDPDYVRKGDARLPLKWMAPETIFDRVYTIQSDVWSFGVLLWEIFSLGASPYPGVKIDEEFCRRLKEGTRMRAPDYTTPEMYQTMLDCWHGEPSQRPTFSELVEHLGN

Compound | N-oxide formation on air [1] | IC50 (VGFR2 (KDR)) | IC50 (Tie-2)
CNC(=O)c1cc(Oc2ccc(NC(=O)Nc3cc(C(F)(F)F)ccc3-n3cncn3)cc2)ccn1 [4-{4-[3-(2-[1,2,4]Triazol-1-yl-5-trifluoromethyl-phenyl)-ureido]-phenoxy}-pyridine-2-carboxylic acid methylamide] | No N-oxide formation could be detected | – | –
CNC(=O)c1cc(Oc2ccc(NC(=O)Nc3cc(C(F)(F)F)ccc3-n3ccnc3)cc2)cc[n+]1[O-] [Compound 13, 4-{4-[3-(2-Imidazol-1-yl-5-trifluoromethyl-phenyl)-ureido]-phenoxy}-1-oxy-pyridine-2-carboxylic acid methylamide] | – | 56 nM | 49 nM
O=C(Nc1ccc(Oc2ccncc2)cc1)Nc1cc(C(F)(F)F)ccc1-n1cncn1 [1-[4-(Pyridin-4-yloxy)-phenyl]-3-(2-[1,2,4]triazol-1-yl-5-trifluoromethyl-phenyl)-urea] | No N-oxide formation could be detected | – | –
CNC(=O)c1cc(Oc2ccc(NC(=O)Nc3cc(C(F)(F)F)ccc3-n3cncn3)cc2)cc[n+]1[O-] [Compound 11, 1-Oxy-4-{4-[3-(2-[1,2,4]triazol-1-yl-5-trifluoromethyl-phenyl)-ureido]-phenoxy}-pyridine-2-carboxylic acid methylamide] | – | 14 nM | 52 nM
CNC(=O)c1cc(Oc2ccc(NC(=O)Nc3cc(C(F)(F)F)ccc3-n3ccnn3)cc2)ccn1 [4-{4-[3-(2-[1,2,3]Triazol-1-yl-5-trifluoromethyl-phenyl)-ureido]-phenoxy}-pyridine-2-carboxylic acid methylamide] | No N-oxide formation could be detected | – | –
O=C(Nc1ccc(Oc2cc[n+]([O-])cc2)cc1)Nc1cc(C(F)(F)F)ccc1-n1cncn1 [Compound 14, 1-[4-(1-Oxy-pyridin-4-yloxy)-phenyl]-3-(2-[1,2,4]triazol-1-yl-5-trifluoromethyl-phenyl)-urea] | – | 1200 nM | 740 nM
CNC(=O)c1cc(Oc2ccc(NC(=O)Nc3cc(C(F)(F)F)ccc3-n3ccnn3)cc2)cc[n+]1[O-] [Compound 12, 1-Oxy-4-{4-[3-(2-[1,2,3]triazol-1-yl-5-trifluoromethyl-phenyl)-ureido]-phenoxy}-pyridine-2-carboxylic acid methylamide] | – | 49 nM | 30 nM
CNC(=O)c1cc(Oc2ccc(NC(=O)Nc3cc(C(F)(F)F)ccc3-n3ccnc3)cc2)ccn1 [4-{4-[3-(2-Imidazol-1-yl-5-trifluoromethyl-phenyl)-ureido]-phenoxy}-pyridine-2-carboxylic acid methylamide] | No N-oxide formation could be detected | – | –

From patent US20090124633A1, “N-OXIDES OF HETEROCYCLIC SUBSTITUTED BISARYLUREAS FOR TREATING KINASE-MEDIATED DISEASES” (priority 2006, published 2009)
